Experiments:
[1] = test system: A549; assay: Cytotoxicity against human A549 cells after 48 hrs by MTT assay; format: functional, cell-based; conditions: A549, 48 h
[2] = test system: MCF7; assay: Cytotoxicity against human MCF7 cells after 48 hrs by MTT assay; format: functional, cell-based; conditions: MCF7, 48 h
[3] = test system: SW480; assay: Cytotoxicity against human SW480 cells after 48 hrs by MTT assay; format: functional, cell-based; conditions: SW480, 48 h
[4] = test system: SMMC-7721; assay: Cytotoxicity against human SMMC7721 cells after 48 hrs by MTT assay; format: functional, cell-based; conditions: SMMC-7721, 48 h
[5] = test system: Human immunodeficiency virus 1; assay: Antiviral activity against HIV1 3B infected in human C8166 cells assessed as inhibition of viral-induced cytopathogenicity by syncytium formation assay; format: functional, organism-based; conditions: Human immunodeficiency virus 1, 3B

Compound	IC50 [1] [µM]	IC50 [2] [µM]	IC50 [3] [µM]	IC50 [4] [µM]	EC50 [5] [µM]
C/C(=C\CC[C@@H](C)[C@H]1CC[C@@]2(C)[C@@H]3CC[C@H]4C(C)(C)C(=O)CC[C@]4(C)C3=C[C@@H](O)[C@]12C)C(=O)O	> 40	> 40	> 40	> 40	54.8
C/C(=C\CC[C@@H](C)C(=O)CC[C@]1(C)C(=O)C=C2[C@H]1CC[C@H]1C(C)(C)C(=O)CC[C@]21C)C(=O)O	> 40	> 40	> 40	> 40	30.3
CC1=C[C@]2(O)[C@@H](CC[C@H]3C(C)(C)C(=O)CC[C@@]32C)[C@@](C)(CCC(=O)[C@H](C)CC/C=C(\C)C(=O)O)C1=O	> 40	> 40	> 40	> 40	
Cc1cn([C@H]2C[C@H](N=[N+]=[N-])[C@@H](CO)O2)c(=O)[nH]c1=O [ZIDOVUDINE]					0.02

Source: ChEMBL document CHEMBL3091302, “Kadcotriones A-C: tricyclic triterpenoids from Kadsura coccinea” (J Nat Prod, 2013)
